Earlier results as cited in patent publication US20100168247A1, “SOLID COMPOSITES OF A CALCIUM RECEPTOR-ACTIVE COMPOUND” (TEVA PHARMACEUTICAL INDUSTRIES LTD., priority 2006, published 2010).

SMILES: C[C@@H](NCCCc1cccc(C(F)(F)F)c1)c1cccc2ccccc12.Cl [cinacalcet, (R)—N-[1-(1-naphthyl)ethyl]-3-[3-(trifluoromethyl)phenyl]propan-1-amine hydrochloride]
- solubility (pH 1): about 0.1 mg/ml
- solubility in water (pH 7): less than 1 μg/ml
